Assay results: patent US10883083B2, “Tissue-engineered three-dimensional model for tumor analysis” (The Trustees of Columbia University in the City of New York, priority 2013, dated 2021)

Test system: ES cells (SK-N-MC) in Col 1-HA scaffold
Assay: Blebbistatin treatment of bioengineered tumor: cell morphology and exosome size (NTA)
Type: cell-based, human
Conditions: blebbistatin-treated vs untreated controls, 3D setting
Protocol: To seed 3D Collagen 1-HA scaffolds, single-cell suspension of SK-N-MC cells was adjusted to the cell concentration of 1×10^6 cells/mL in a 50 ml Falcon tube. A total of 15 scaffolds were added to 30 mL of cell suspension, and the Falcon was set onto a rotary platform for 3 hours at 37° C./5% CO2. Cell seeded scaffolds were then transferred to non-treated wells in 12-multiwell plates (Nunc) and cultured in 2 mL of medium at 37° C./5% CO2. Cell numbers and were determined by Quant-iT PicoGreen dsDNA Assay Kit (Life technologies) according to the manufacturer's instructions. Exosome isolation and size analysis: Cells cultured in monolayers, aggregates and 3D scaffolds were washed with PBS twice and cultured in EMEM supplemented with 10% (v/v) Exosome-depleted FBS (SBI) and 1% penicillin/streptomycin for 12 h. The supernatants were collected and exosomes were isolated from cell culture media using the total exosome isolation kit (Invitrogen), according to the manufacturer's protocol. Exosomes from plasma samples were also isolated using the total exosome isolation kit (Invitrogen). The size distributions of exosomes were determined by Nanoparticle Tracking Analysis (NTA) using the Nanosight machine. To probe a possible mechanism underlying the observed effects of the tumor environment on exosome size, we modified the tension forces within the cells.

In the case of `Cc1ccc2c(c1)C(=O)C1(O)CCN(c3ccccc3)C1=N2` (centres unmarked) [Blebbistatin], the “Cell morphology / cell aggregates” value is reported as “partial disassembly of cell aggregates” and the Exosome size distribution is reported as “shift of the exosome size distribution curve to higher values”.
